Tests used:
WT-ADSCs cells = assay: anti-proliferation efficacy and cell cycle of CDK4/6 inhibitors against primary adipose derived stem cells; format: cell-based, mouse; conditions: WT-ADSCs treated 6 days, PD 0.1 μM or LEE 10 μM, vs DMSO or vehicle; for frequency of proliferating cells (S-G2-M) / frequency of quiescence cells (G1): flow cytometric cell cycle profile; for total cell numbers: initial plating 5×10^5 cells
Description: (a, d) representative flow cytometric cell cycle profiles of WT-ADSCs cells treated with either PD (0.1 μM) or LEE (10 μM) for 6 days. (b, e) histograms summarizing the cell cycle distribution of the cells in A and D. Data shown are mean±s.d. (n=6); *P<0.05 vs DMSO or V, t-test. (c, f) Histograms summarizing the total cell numbers in WT-ADSCs cells treated with DMSO or PD (0.1 μM) for 6 days (c), or WT-ADSCs cells treated with vehicle (0.5% methycellulose) or LEE for 6 days (F). Data shown are mean±s.d. (n=6); *P<0.05 vs DMSO or V, t-test. The initial plating cells were 5×10^5.
To accomplish this, the anti-proliferation efficacy of CDK4/6 inhibitors against primary adipose derived stem cells (ADSCs) from the stromal vascular fraction (SVF) of WT adipose tissue (WT-ADSCs) we assessed. WT-ADSCs were treated with two known commercial available CDK4/6 inhibitors PD0332991 (PD) and LEE011 (LEE), two clinically relevant small molecule inhibitors of CDK4 and CDK6 kinases (Rader, J., et al. Clin Cancer Res 19, 6173-6182, 2013); Fry, D. W., et al. Mol Cancer Ther 3, 1427-1438, 2004; Pikman, Y., et al. Clin Cancer Res 23, 1012-1024, 2017) for 6 days with commonly used relevant effective doses (Fry, D. W., et al. Mol Cancer Ther 3, 1427-1438, 2004; Pikman, Y., et al. Clin Cancer Res 23, 1012-1024, 2017).

WT-ADSCs = assay: differentiation towards brown-like adipocytes in the presence of BAT inducers; format: cell-based, mouse; conditions: WT-ADSCs with BAT inducers; LEE011 10 μM, PD 0.1 μM; vs vehicle
Description: (a, d) Representative images of Oil Red O staining of differentiated ADSCs from WT and K43M mice (a, 10×) or WT-ADSCs treated with CDK4/6 inhibitor LEE011 (10 μM) and PD (0.1 μM) (a, 10×) in the presence of BAT inducers. (b, e) Representative images of Oil Red O staining of differentiated ADSCs from WT and K43M mice (b, 40×) or WT-ADSCs treated with CDK4/6 inhibitor LEE011 10 μM and PD 0.1 μM (e, 40×) in the presence of BAT inducers. (c, f) Representative images of bright field images of differentiated ADSCs from iWAT of WT and K43M mice or WT-ADSCs treated with CDK4/6 inhibitor LEE011 (10 μM) and PD (0.1 μM) (f, 40×) in the presence of BAT inducers.
(a) Relative mRNA levels of BAT markers Ucp-1, Pgc-1α and Cidea in differentiated ADSCs in the presence of BAT inducers. […] (b) lysates from cells were analyzed by immunoblotting for expression of CDK6, UCP-1, PGC-1α, and RUNX1. […]
Cellular differentiation entails the coordination of cell cycle arrest and tissue-specific gene expression. […] Accumulation of lipid-containing cells was detected by Oil red O staining as described (Hansen, J. B., et al. J Biol Chem 274, 2386-2393, 1999) (FIG. 11 a-b) and the characteristic feature of multilocular beige cells were also visualized under light microscopy (FIG. 11c). […]

Row | SMILES | frequency of proliferating cells (S-G2-M) (WT-ADSCs cells) | frequency of quiescence cells (G1) (WT-ADSCs cells) | total cell numbers (WT-ADSCs cells) | brown-like adipocyte differentiation (WT-ADSCs)
1 | CN(C)C(=O)c1cc2cnc(Nc3ccc(N4CCNCC4)cn3)nc2n1C1CCCC1 [LEE011, Ribociclib] | dramatic reduction | increased frequency | successfully reduced | can induce brown-like adipocytes in vitro
2 | CC(=O)c1c(C)c2cnc(Nc3ccc(N4CCNCC4)cn3)nc2n(C2CCCC2)c1=O [PD0332991, palbociclib] | dramatic reduction | increased frequency | successfully reduced | can induce brown-like adipocytes in vitro

Source: patent US11077110B2, “Compositions and methods for treating and preventing metabolic disorders” (TUFTS MEDICAL CENTER, priority 2016, dated 2021)
